For data set [1], the system named is nitric oxide (NO) production in RAW 264.7 cells. In words: Nitric oxide (NO) production inhibitory assay, LPS-stimulated RAW 264.7 cells, Griess reagent. The format is cell-based. The following applies: for inhibition at 100 µg/mL: read-out: % of NO Inhibition at 100 µg/mL; for IC50: read-out: NO Production Inhibition IC50. How it is done: This assay was performed as previously described. […] After 24 h, 100 µL of Griess reagent was added to the samples for 10 min. […] Additionally, the data are presented as the IC50, which was calculated with GraphPad Prism 6.0 software.

Data set [2] is described as follows: Cytotoxicity assay against leukemic K562 cells, MTT. The following applies: human, K562 leukemic cells.
Method: (§1) Lung cancer A549 and colorectal cancer SW480 cells were maintained with Dulbecco’s modified Eagle’s medium (DMEM) containing 10% fetal bovine serum (FBS) and 1% penicillin/streptomycin. Leukemic K562 cells were cultured in RPMI-1640 supplemented with 10% fetal bovine serum (FBS) and 1% penicillin/streptomycin. All cells were cultured in 96-well plates at 37 °C in 5% CO2, followed by treatment with the sample for 24 h. After the incubation period, 0.5 mg/mL MTT was added to the cells and left for 4 h. The formazan was dissolved in DMSO and measured at 570 nm using Biochrom EZ Read 400 ELISA microplate reader (Biochrom Ltd., Cambridge, UK).
The nature of data set [3]: Cytotoxicity assay in mammalian cells (RAW 264.7), MTT. The settings on record: mouse, RAW 264.7 cells.
Method: (§2) Cell viability was measured by the MTT assay. RAW 264.7 cells were seeded at 4 × 10^4 cells/well in 96-well plates and incubated at 37 °C and 5% CO2 overnight. Cells were treated with different concentrations of tea extracts, including 3.125, 6.25, 12.5, 25, 50, and 100 µg/mL, for 24 h. After 24 h, cells were washed with PBS and incubated with 0.5 mM MTT reagent for 4 h. The detection of formazan at 570 nm was performed with a Biochrom EZ Read 400 ELISA microplate reader (Biochrom Ltd., Cambridge, UK). The data were calculated as IC50 values with GraphPad Prism 6.0 software.
The nature of data set [4]: Cytotoxicity assay against lung cancer A549 cells, MTT. The settings on record: human, A549 lung cancer cells.
Method: as §1
Data set [5] in a line: Cytotoxicity assay against colorectal cancer SW480 cells, MTT. The following applies: human, SW480 colorectal cancer cells.
Method: as §1
A further data set deals with leukemic K562 cells. As to the kind of experiment: Cytotoxicity assay against leukemic K562 cells, MTT. The following applies: Homo sapiens, K562, 24 h, read-out: IC50 cytotoxicity K562 (Leukemic Cells).
Another data set deals with lung cancer A549 cells. As to the kind of experiment: Cytotoxicity assay against lung cancer A549 cells, MTT. The settings on record: Homo sapiens, A549, 24 h, read-out: IC50 cytotoxicity A549 (Lung Cancer).
Data set [6] has as its system colorectal cancer SW480 cells. In words: Cytotoxicity assay against colorectal cancer SW480 cells, MTT. The following applies: Homo sapiens, SW480, 24 h, read-out: IC50 cytotoxicity SW480 (Colorectal Cancer).
Method: as §1
A further data set can be described thus: in vitro. The settings on record: mouse.
In data set [7] the test system is lung cancer (A549) cell line. On the set-up: method as in doi:10.1007/s10600-015-1259-y. The following applies: 30 µg/mL; cited from earlier work.
The mark [8] stands for this setting: Mus musculus, RAW264.7, 100 µg/mL, LPS 1 µg/mL, 24 h.
[9] abbreviates: Mus musculus, RAW264.7, LPS 1 µg/mL, 24 h.

These results are taken from PMC8224630, “Cytotoxicity and Nitric Oxide Production Inhibitory Activities of Compounds Isolated from the Plant Pathogenic Fungus Curvularia sp” (Journal of Fungi, 2021).

Molecules are shown by their SMILES. Where two headings read alike, the source gives them in different places.

Method for in vitro: as §2

The term IC50 denotes the concentration needed to halve the response being measured. Usually melting point stands for the temperature, or range, at which the solid turns liquid. In general, viability refers to the share of living cells, or the viability signal relative to a control. Low readings indicate more harm to the cells, high ones less harm to the cells. `CC[C@H](C)[C@@H](OC(C)=O)[C@@H](C)C1=C(N)C(=O)C2=C(O[C@]3(C)CC[C@H]4O[C@@H](C(C)(C)O)CC[C@]4(C)[C@H]3[C@@H]2O)C1=O` [Compound 1, cochlioquinone N] yielded a melting point of 185 to 187 °C. Besides, the inhibition at 100 µg/mL in data set [1] (setting [8]) is 51.3 ± 1.65%. Moreover, the IC50 in data set [1] (setting [9]) is 53.7 µM. This molecule also had a viability at 24 h, 100 µg/mL in data set [2] of 81.1 ± 3.8%. In data set [3], this molecule yielded a viability at 24 h, 100 µg/mL of 97.14 ± 0.81%. Also, the viability at 24 h, 100 µg/mL in data set [4] was found to be 88.5 ± 1.19%. This molecule showed a viability at 24 h, 100 µg/mL in data set [5] of 82.6 ± 1.68%.
`CC[C@H](C)[C@@H](OC(C)=O)[C@@H](C)C1=CC(=O)C2=C(O[C@]3(C)CC[C@H]4O[C@@H](C(C)(C)O)CC[C@]4(C)[C@H]3[C@@H]2O)C1=O` [Compound 2, cochlioquinone A]: in [2], the viability at 24 h, 6.25 µg/mL stood at 71 ± 1.69%; the viability at 24 h, 12.5 µg/mL was 38.4 ± 3.18%; the viability at 24 h, 25 µg/mL stood at 21 ± 2.61%; the viability at 24 h, 50 µg/mL was determined as 13.3 ± 0.89%. Besides, the viability at 24 h, 100 µg/mL in data set [2] came to 12.5 ± 1.24%. Besides, the IC50 with leukemic K562 cells was found to be 17.6 µM. In data set [3], this molecule had an IC50 at 24 h below 11.7 µM; a viability at 24 h, 6.25 µg/mL of 28.5 ± 1.98%; a viability at 24 h, 12.5 µg/mL of 16.6 ± 0.52%; a viability at 24 h, 25 µg/mL of 15 ± 0.29%. In [3], this molecule registered a viability at 24 h, 50 µg/mL of 11.67 ± 0.08% and a viability at 24 h, 100 µg/mL of 10.8 ± 0.09%. In data set [4], this molecule displayed a viability at 24 h, 6.25 µg/mL of 73.1 ± 1.09%; a viability at 24 h, 12.5 µg/mL of 23.1 ± 1.84%; a viability at 24 h, 25 µg/mL of 17.9 ± 1.93%; a viability at 24 h, 50 µg/mL of 14.8 ± 2.54%. This molecule had a viability at 24 h, 100 µg/mL in data set [4] of 13.4 ± 0.48%. For the same molecule, in the data set on lung cancer A549 cells, the half-inhibitory concentration (IC50) amounted to 14.3 µM. In data set [5], the viability at 24 h, 6.25 µg/mL came out at 30.8 ± 0.4%; the viability at 24 h, 12.5 µg/mL was found to be 23.4 ± 0.25%; the viability at 24 h, 25 µg/mL came to 17.6 ± 0.7%; the viability at 24 h, 50 µg/mL came out at 15.6 ± 0.77%. The viability at 24 h, 100 µg/mL in data set [5] came to 14.9 ± 0.57%. Further, the IC50 in data set [6] is below 11.7 µM.
Consider `C/C=C(\C)[C@@H](OC(C)=O)[C@@H](C)C1=CC(=O)C2=C(O[C@]3(C)CC[C@H]4O[C@@H](C(C)(C)O)CC[C@]4(C)[C@H]3[C@@H]2O)C1=O` [Compound 3, stemphone], for which, in data set [1] (Mus musculus, RAW264.7, 24 h), the inhibition at 100 µg/mL stood at 73.41 ± 0.44% and the IC50 amounted to 32.8 µM. The viability at 24 h, 100 µg/mL in the data set “in vitro” came out at 71.4 ± 2.67%.
`CC[C@H](C)[C@@H](OC(C)=O)[C@@H](C)C1=CC(=O)C2=C(O[C@]3(C)CC[C@H]4O[C@@H](C(C)(C)O)CC[C@]4(C)C3=C2)C1=O` [Compound 4, anhydrocochlioquinone A]: in data set [7], the “inhibition ratio, cytotoxicity against A549” value is 41%. In [2], the viability at 24 h, 6.25 µg/mL was determined as 19.5 ± 2.62%; the viability at 24 h, 12.5 µg/mL amounted to 14 ± 2.31%; the viability at 24 h, 25 µg/mL came out at 12.9 ± 0.34%; the viability at 24 h, 50 µg/mL amounted to 11.3 ± 0.4%. This molecule also had a viability at 24 h, 100 µg/mL in [2] of 10.6 ± 0.2%. Further, the IC50 in the data set on leukemic K562 cells is below 12.1 µM. In [3], this molecule showed an IC50 at 24 h below 12.1 µM; a viability at 24 h, 6.25 µg/mL of 14.3 ± 0.73%; a viability at 24 h, 12.5 µg/mL of 12.4 ± 0.47%; a viability at 24 h, 25 µg/mL of 12.1 ± 0.42%. In data set [3], the viability at 24 h, 50 µg/mL was 12.8 ± 0.7% and the viability at 24 h, 100 µg/mL is 11.1 ± 0.43%. Also, in data set [4], the viability at 24 h, 6.25 µg/mL was found to be 12.4 ± 0.17%; the viability at 24 h, 12.5 µg/mL came to 11.6 ± 1.05%; the viability at 24 h, 25 µg/mL was found to be 10.2 ± 0.17%; the viability at 24 h, 50 µg/mL turned out to be 9.35 ± 0.52%. Also, the viability at 24 h, 100 µg/mL in data set [4] stood at 8.4 ± 0.58%. Also, the IC50 with lung cancer A549 cells was below 12.1 µM. In data set [5], this molecule had a viability at 24 h, 6.25 µg/mL of 17.3 ± 0.33%; a viability at 24 h, 12.5 µg/mL of 15.6 ± 0.39%; a viability at 24 h, 25 µg/mL of 15.4 ± 0.42%; a viability at 24 h, 50 µg/mL of 14.7 ± 0.24%. The same molecule showed a viability at 24 h, 100 µg/mL in data set [5] of 14.4 ± 0.4%. For the same molecule, the IC50 in data set [6] is below 12.1 µM.
Regarding `CCCC1C2=C(CCC3C(=O)OC(=O)C3=CC1CC)C(=O)OC2=O` (stereo not shown) [Compound 5, curvulariahawadride], the IC50 is 12.8 µM in [1] (LPS 1 µg/mL, 24 h) and 12.9 µM in [1] (Mus musculus, RAW264.7, 24 h, LPS 1 µg/mL, 24 h). Besides, in data set [1] (setting [8]), the inhibition at 100 µg/mL worked out at 74 ± 1.14%.
With `C/C1=C\C[C@]2(C)C(=O)C(O)=C([C@H](C)CO)[C@H]2C/C=C(\C)[C@@H](O)CC/C(C)=C/CC1` [Compound 6, terpestacin], in data set [1] (LPS 1 µg/mL, 24 h), the “NO Production Inhibition IC50” value was “inactive”. For the same molecule, the inhibition at 100 µg/mL in data set [1] (setting [8]) was 41 ± 3.36%. The viability at 24 h, 100 µg/mL in [2] was 99.2 ± 3.84%; in [3], 99.3 ± 2.51%; in data set [4], 92 ± 3.75%; in data set [5] it was 97.7 ± 1.04%.
Turning to `COc1ccc2c(c1)c(CC(=O)O)c(C)n2C(=O)c1ccc(Cl)cc1` [Indomethacin, reference compound], the inhibition at 100 µg/mL in data set [1] (setting [8]) was determined as 77.45 ± 0.28%. Besides, in data set [1] (setting [9]), the IC50 was 73.4 µM.
